Laboratory results: publication PMC8508903, “Novel Dipyridinium Lipophile-Based Ionic Liquids Tethering Hydrazone Linkage: Design, Synthesis and Antitumorigenic Study” (International Journal of Molecular Sciences, 2021)
Counter-ions that a name gives are not always drawn.

What was measured:
[1] = tested on: H1299 lung cancer cells; assay: MTT cell viability assay, H1299; format: cell-based, human; conditions: mean of three independent experiments (N = 9)
Method: (§1) To evaluate the effect of the examined series on the viability of different lung cancer cells, MTT assay was conducted after exposing A549, H1299, and H661 cell lines to increasing concentrations of each compound for 48 h. […] Table 2 and Supplementary Figure S92 (see Supplementary Materials) show the 50% inhibitory concentration (IC50) values for the compounds under investigation in A549, H1299, and H661 lung cancer cells.
(§2) The human lung cancer cell lines A549, H1299 and H661 and the normal cells dermal fibroblasts were obtained from the American Type Culture Collection ATCC. Cells were cultured as a monolayer at seeding density of 8 × 10^3 cells per well in high glucose Dulbecco’s modified eagle medium (DMEM) (Invitrogen, USA), as previously described. The in vitro assessment of the antitumorigenic activities related to the studied compounds was undertaken using the 3-(4,5-dimethylthiazol-2yl)-2,5-diphenyl tetrazolium bromide (MTT) colorimetric assay, as previously reported. The compounds under investigation were tested in three triplicates of each concentration in three independent assays for a total of nine replicates. Both positive (cisplatin) and negative (untreated culture) controls were applied under the same experimental conditions. Cells were cultured for 48 h at 37 °C in a 5% CO2 incubator. Afterwards, MTT assay was carried out where viable cell count was determined based on the amount of formazan crystals, as verified by the absorbance at 490 nm.
(§3) Data was analyzed by Graphpad Prism software (Graphpad Software Inc. Jolla, CA, USA) for the determination of IC50 value. All data were expressed as the average of triplicate experiments.

[2] = tested on: A549 lung cancer cells; assay: MTT cell viability assay, A549; format: cell-based, human; conditions: mean of three independent experiments (N = 9)
Method: as §1, §2, §3

[3] = tested on: human dermal fibroblasts; assay: MTT cell viability assay, normal dermal fibroblasts; format: cell-based; conditions: 48 h, noncancerous human dermal fibroblasts
Method: as §1, §2, §3

[4] = tested on: H661 lung cancer cells; assay: MTT cell viability assay, H661; format: cell-based, human; conditions: mean of three independent experiments (N = 9)
Method: as §1, §2, §3

Row | IC50 ([1]; Homo sapiens, NCI-H1299, 48 h) [µM] | IC50 ([2]; Homo sapiens, A549, 48 h) [µM] | IC50 ([4]; Homo sapiens, NCI-H661, 48 h) [µM] | IC50 ([1]; 48 h) [µM] | IC50 ([2]; 48 h) [µM] | IC50 ([4]; 48 h) [µM] | melting point [°C] | SMILES | IC50 ([3]; Homo sapiens, Fibroblast) [µM] | IC50 [3] [µM]
1 | 66 | 69.1 | 61.2 |  |  |  |  | CCCCCCCC[n+]1ccc(C(=O)NN=Cc2ccc[n+](CCCCCCCC)c2)cc1 [Compound 17, 1-Octyl-3-((2-(1-octylpyridin-1-ium-4-carbonyl)hydrazono)methyl)pyridin-1-ium Tetrafluoroborate] | > 300 | 
2 |  |  |  | 19 | 15.1 | 23.5 | 70 to 72 | CCCCCCCCCC[n+]1ccc(C(=O)NN=Cc2ccc[n+](CCCCCCCCCC)c2)cc1.[I-].[I-] [Compound 11, 1-Decyl-3-((2-(1-decylpyridin-1-ium-4-carbonyl)hydrazono)methyl)pyridin-1-ium Iodide] |  | > 300
3 |  |  |  | 399 | 421 | 382 |  | CCCCCCCCCCCCCCCCCC[n+]1ccc(C(=O)NN=Cc2ccc[n+](CCCCCCCCCCCCCCCCCC)c2)cc1 [Compound 35, 1-Octadecyl-3-((2-(1-octadecylpyridin-1-ium-4-carbonyl)hydrazono)methyl)pyridin-1-ium Tetrafluoroborate] |  | > 1000
4 |  |  |  | 92.3 | 87.8 | 100 |  | CCCCCCCCCCCCCCCC[n+]1ccc(C(=O)NN=Cc2ccc[n+](CCCCCCCCCCCCCCCC)c2)cc1 [Compound 33, 1-Hexadecyl-3-((2-(1-hexadecylpyridin-1-ium-4-carbonyl)hydrazono)methyl)pyridin-1-ium Trifluoroacetate] |  | > 300
5 |  |  |  | 947 | 920 | 904 |  | CCCCCCCCCCCCCCCCCC[n+]1ccc(C(=O)NN=Cc2ccc[n+](CCCCCCCCCCCCCCCCCC)c2)cc1 [Compound 36, 1-Octadecyl-3-((2-(1-octadecylpyridin-1-ium-4-carbonyl)hydrazono)methyl)pyridin-1-ium Trifluoroacetate] |  | > 1000
6 |  |  |  | 63.1 | 55.6 | 60.1 | 76 to 78 | CCCCCCCCC[n+]1ccc(C(=O)NN=Cc2ccc[n+](CCCCCCCCC)c2)cc1.[I-].[I-] [Compound 10, 1-Nonyl-3-((2-(1-nonylpyridin-1-ium-4-carbonyl)hydrazono)methyl)pyridin-1-ium Iodide] |  | > 300
7 |  |  |  | 71 | 78.5 | 74.5 |  | CCCCCCCC[n+]1ccc(C(=O)NN=Cc2ccc[n+](CCCCCCCC)c2)cc1 [Compound 18, 1-Octyl-3-((2-(1-octylpyridin-1-ium-4-carbonyl)hydrazono)methyl)pyridin-1-ium Trifluoroacetate] |  | > 300
8 |  | 14.3 |  | 12.1 |  | 10.5 |  | CCCCCCCCCCCC[n+]1ccc(C(=O)NN=Cc2ccc[n+](CCCCCCCCCCCC)c2)cc1 [Compound 27, 1-Dodecyl-3-((2-(1-dodecylpyridin-1-ium-4-carbonyl)hydrazono)methyl)pyridin-1-ium Trifluoroacetate] | > 300 | 
9 |  |  |  | 19 | 20 | 18.1 |  | CCCCCCCCCC[n+]1ccc(C(=O)NN=Cc2ccc[n+](CCCCCCCCCC)c2)cc1 [Compound 24, 1-Decyl-3-((2-(1-decylpyridin-1-ium-4-carbonyl)hydrazono)methyl)pyridin-1-ium Trifluoroacetate] |  | > 300

The next lines start with the compound.

Row | SMILES | IC50 ([1]; Homo sapiens, NCI-H1299, 48 h) [µM] | IC50 ([2]; Homo sapiens, A549, 48 h) [µM] | IC50 ([4]; Homo sapiens, NCI-H661, 48 h) [µM] | IC50 ([1]; 48 h) [µM] | IC50 ([2]; 48 h) [µM] | IC50 ([4]; 48 h) [µM] | melting point [°C] | IC50 ([3]; Homo sapiens, Fibroblast) [µM] | IC50 [3] [µM]
10 | CCCCCCCCC[n+]1ccc(C(=O)NN=Cc2ccc[n+](CCCCCCCCC)c2)cc1 [Compound 21, 1-Nonyl-3-((2-(1-nonylpyridin-1-ium-4-carbonyl)hydrazono)methyl)pyridin-1-ium Trifluoroacetate] |  |  |  | 28 | 33.5 | 19.4 |  |  | > 300
11 | N.N.[Cl][Pt][Cl] [Cisplatin, cisplatin, reference compound] |  |  |  | 18 | 23 | 32 |  |  | > 100
12 | CCCCCCCC[n+]1ccc(C(=O)N/N=C/c2ccc[n+](CCCCCCCC)c2)cc1 (as salt: phosphate) [Compound 16, 1-Octyl-3-((2-(1-octylpyridin-1-ium-4-carbonyl)hydrazono)methyl)pyridin-1-ium Hexafluorophosphate] |  |  |  |  |  |  | 58 to 59 |  | 
13 | CCCCCCCCCCCC[n+]1ccc(C(=O)N/N=C/c2ccc[n+](CCCCCCCCCCCC)c2)cc1 [Compound 26, 11-Dodecyl-3-((2-(1-dodecylpyridin-1-ium-4-carbonyl)hydrazono)methyl)pyridin-1-ium Tetrafluoroborate] | 39.3 | 44 | 40.4 |  |  |  |  | > 300 | 
14 | CCCCCCCCCCCCCC[n+]1ccc(C(=O)NN=Cc2ccc[n+](CCCCCCCCCCCCCC)c2)cc1 [Compound 13, 1-Tetradecyl-3-((2-(1-tetradecylpyridin-1-ium-4-carbonyl)hydrazono)methyl)pyridin-1-ium Iodide] |  |  |  | 38 | 36.8 | 38.2 |  |  | > 300
15 | CCCCCCCCCC[n+]1ccc(C(=O)N/N=C/c2ccc[n+](CCCCCCCCCC)c2)cc1 (as salt: phosphate) [Compound 22, 1-Decyl-3-((2-(1-decylpyridin-1-ium-4-carbonyl)hydrazono)methyl)pyridin-1-ium Hexafluorophosphate] |  |  |  |  |  |  | 42 to 44 |  | 
16 | CCCCCCCCCCCC[n+]1ccc(C(=O)NN=Cc2ccc[n+](CCCCCCCCCCCC)c2)cc1.[I-].[I-] [Compound 12, 1-Dodecyl-3-((2-(1-dodecylpyridin-1-ium-4-carbonyl)hydrazono)methyl)pyridin-1-ium Iodide] |  |  |  | 30.1 | 26.9 | 29.8 | 63 to 65 |  | > 300
17 | CCCCCCCC[n+]1ccc(C(=O)NN=Cc2ccc[n+](CCCCCCCC)c2)cc1.[I-].[I-] [Compound 9, 1-Octyl-3-((2-(1-octylpyridin-1-ium-4-carbonyl)hydrazono)methyl)pyridin-1-ium Iodide] |  |  |  | 64.3 | 75.3 | 74.2 | 82 to 84 |  | > 300
18 | CCCCCCCCCCCCCCCC[n+]1ccc(C(=O)NN=Cc2ccc[n+](CCCCCCCCCCCCCCCC)c2)cc1 [Compound 32, 1-Hexadecyl-3-((2-(1-hexadecylpyridin-1-ium-4-carbonyl)hydrazono)methyl)pyridin-1-ium Tetrafluoroborate] |  |  |  | 108 | 114 | 104 |  | > 300 | 
19 | CCCCCCCCCCCCCCCCCC[n+]1ccc(C(=O)NN=Cc2ccc[n+](CCCCCCCCCCCCCCCCCC)c2)cc1.[I-].[I-] [Compound 15, 1-Octadecyl-3-((2-(1-octadecylpyridin-1-ium-4-carbonyl)hydrazono)methyl)pyridin-1-ium Iodide] |  |  |  | 22.1 | 26.2 | 26.1 | 192 to 193 |  | > 300
20 | CCCCCCCCCCCCCC[n+]1ccc(C(=O)NN=Cc2ccc[n+](CCCCCCCCCCCCCC)c2)cc1 [Compound 30, 1-Tetradecyl-3-((2-(1-tetradecylpyridin-1-ium-4-carbonyl)hydrazono)methyl)pyridin-1-ium Trifluoroacetate] |  |  |  | 38.5 | 38.6 | 41.9 |  |  | > 300
21 | CCCCCCCCC[n+]1ccc(C(=O)NN=Cc2ccc[n+](CCCCCCCCC)c2)cc1 [Compound 20, 1-Nonyl-3-((2-(1-nonylpyridin-1-ium-4-carbonyl)hydrazono)methyl)pyridin-1-ium Tetrafluoroborate] |  | 31.4 |  | 32.6 |  | 33 |  | > 300 | 
22 | CCCCCCCCCCCCCC[n+]1ccc(C(=O)NN=Cc2ccc[n+](CCCCCCCCCCCCCC)c2)cc1 [Compound 29, 1-Tetradecyl-3-((2-(1-tetradecylpyridin-1-ium-4-carbonyl)hydrazono)methyl)pyridin-1-ium Tetrafluoroborate] | 44.6 | 42.1 | 46.8 |  |  |  |  | > 300 | 
23 | CCCCCCCCCCCCCCCC[n+]1ccc(C(=O)NN=Cc2ccc[n+](CCCCCCCCCCCCCCCC)c2)cc1 [Compound 14, 1-Hexadecyl-3-((2-(1-hexadecylpyridin-1-ium-4-carbonyl)hydrazono)methyl)pyridin-1-ium Iodide] |  |  |  | 10.1 | 7.11 | 11.2 |  |  | > 300
